Assay results published in the supplement of paper PMC4862054.
“And” between values parts separate entries of the source, which are not always exact repeats. Equal entries are not always repeated.

How the values were obtained:
Conditions in all cases: incubation time: 72 h
[1] = test system: HCC1599; assay: drug sensitivity score (DSS), CellTiter-Blue viability (DSS (AUC-based score)); higher = stronger viability inhibition; extreme values may be limits of the assay
Protocol: (§1)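 DSRT with the CellTiter-Blue (resazurin reduction) viability readout, fluorescence 560/590 nm, 72 h incubation. Plates were normalised to DMSO and benzethonium chloride controls. DSS is computed from the area under the fitted dose-response curve (5 or 9 concentrations).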

[2] = test system: CAL-51; assay: as above
Protocol: as §1

[3] = test system: MFM-223; assay: as above
Protocol: as §1

[4] = test system: CAL-85-1; assay: as above
Protocol: as §1

[5] = test system: SK-BR-3; assay: as above
Protocol: as §1

[6] = test system: MDA-MB-468; assay: as above
Protocol: as §1

[7] = test system: BT-474; assay: as above
Protocol: as §1

[8] = test system: HCC1937; assay: as above
Protocol: as §1

[9] = test system: DU-4475; assay: as above
Protocol: as §1

[10] = test system: BT-549; assay: as above
Protocol: as §1

[11] = test system: CAL-120; assay: as above
Protocol: as §1

[12] = test system: MDA-MB-436; assay: as above
Protocol: as §1

[13] = test system: MDA-MB-231; assay: as above
Protocol: as §1

[14] = test system: HCC1143; assay: as above
Protocol: as §1

[15] = test system: CAL-148; assay: as above
Protocol: as §1

[16] = test system: HDQ-P1; assay: as above
Protocol: as §1

[17] = test system: Hs578T; assay: as above
Protocol: as §1

[18] = test system: CAL-51; assay: normalised viability (% of control), CellTiter-Blue; higher = more viable cells (about 100 = DMSO control)
Protocol: (§2)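 DSRT, CellTiter-Blue viability, 72 h incubation. Signal is normalised to DMSO and benzethonium chloride controls. Value is the normalised response at dose 9.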

[19] = test system: MDA-MB-453; assay: as above
Protocol: as §2

[20] = test system: CAL-51; assay: as above; remark: listed apart in the source
Protocol: (§3)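 DSRT, CellTiter-Blue viability, 72 h incubation. Signal is normalised to DMSO and benzethonium chloride controls. Value is the normalised response at dose 8.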

[21] = test system: CAL-85-1; assay: as above
Protocol: as §3

[22] = test system: DU-4475; assay: as above
Protocol: as §3

[23] = test system: MDA-MB-453; assay: as above; remark: listed apart in the source
Protocol: as §3

[24] = test system: CAL-148; assay: as above
Protocol: as §3

[25] = test system: HDQ-P1; assay: as above
Protocol: as §3

[26] = test system: MDA-MB-453; assay: drug sensitivity score (DSS), CellTiter-Blue viability (DSS (AUC-based score)); higher = stronger viability inhibition; extreme values may be limits of the assay
Protocol: as §1

Cc1ccc(NC(=O)c2ccc(CN3CCN(C)CC3)cc2)cc1Nc1nccc(-c2cccnc2)n1 [Imatinib]
drug sensitivity score [1]: 0 | drug sensitivity score [2]: 0 | drug sensitivity score [3]: 0 | drug sensitivity score [4]: 0 | drug sensitivity score [5]: 0 | drug sensitivity score [6]: 0 | drug sensitivity score [7]: 0 | drug sensitivity score [8]: 0 | drug sensitivity score [9]: 0 | drug sensitivity score [10]: 0 | drug sensitivity score [11]: 0 | drug sensitivity score [12]: 0 | drug sensitivity score [13]: 0 | drug sensitivity score [14]: 0 | drug sensitivity score [15]: 0 | drug sensitivity score [16]: 0 | drug sensitivity score [17]: 0 | normalised viability ([18]; 10000 nM): 110% and 93.9% | normalised viability ([19]; 10000 nM): 57.6% and 48.6% | normalised viability ([20]; 3000 nM): 108% and 98.6% | normalised viability ([21]; 3000 nM): 96.1% and 95.3% | normalised viability ([22]; 3000 nM): 112% and 116% | normalised viability ([23]; 3000 nM): 86.2% and 83.6% | normalised viability ([24]; 3000 nM): 102% and 90.9% | normalised viability ([25]; 3000 nM): 118% and 119%

CN(C)CCN1C(=O)c2cccc3cc(N)cc(c23)C1=O [Amonafide]
drug sensitivity score [1]: 1.04 | drug sensitivity score [2]: 5.33 | drug sensitivity score [3]: 1.69 | drug sensitivity score [4]: 3.78 | drug sensitivity score [5]: 2.78 | drug sensitivity score [6]: 1.26 | drug sensitivity score [7]: 0.749 | drug sensitivity score [8]: 7.96 | drug sensitivity score [9]: 5.45 | drug sensitivity score [26]: 4.67 | drug sensitivity score [10]: 0.97 | drug sensitivity score [11]: 5.69 | drug sensitivity score [12]: 3.57 | drug sensitivity score [13]: 7.74 | drug sensitivity score [14]: 0.876 | drug sensitivity score [15]: 7.32 | drug sensitivity score [16]: 2.28 | drug sensitivity score [17]: 1.1 | normalised viability ([18]; 10000 nM): 6.12% | normalised viability ([19]; 10000 nM): 20.4% | normalised viability ([20]; 3000 nM): 55.7% | normalised viability ([21]; 3000 nM): 61.9% | normalised viability ([22]; 3000 nM): 57.9% | normalised viability ([23]; 3000 nM): 68.3% | normalised viability ([24]; 3000 nM): 32% | normalised viability ([25]; 3000 nM): 79.6%

CO[C@H]1C[C@@H]2CC[C@@H](C)[C@@](O)(O2)C(=O)C(=O)N2CCCC[C@H]2C(=O)O[C@H]([C@H](C)C[C@@H]2CC[C@@H](OCCO)[C@H](OC)C2)CC(=O)[C@H](C)/C=C(\C)[C@@H](O)[C@@H](OC)C(=O)[C@H](C)C[C@H](C)/C=C/C=C/C=C/1C [Everolimus]
drug sensitivity score [2]: 22.7 and 22.2 | drug sensitivity score [3]: 20 and 19.4 | drug sensitivity score [4]: 15 and 16.7 | drug sensitivity score [5]: 16.9 and 20.1 | drug sensitivity score [6]: 6.16 and 13.5 | drug sensitivity score [7]: 13.2 and 16 | drug sensitivity score [9]: 12.8 and 16.3 | drug sensitivity score [26]: 29.7 and 31.6 | drug sensitivity score [10]: 9.4 and 21.3 | drug sensitivity score [11]: 19.7 and 24.1 | drug sensitivity score [12]: 0 | drug sensitivity score [15]: 23 and 25.5 | normalised viability ([18]; 1000 nM): 37% and 28.9% | normalised viability ([19]; 1000 nM): 25.4% and 15.4% | normalised viability ([20]; 300 nM): 40.4% and 43.4% | normalised viability ([21]; 300 nM): 57% and 52.9% | normalised viability ([22]; 300 nM): 60.9% and 62.6% | normalised viability ([23]; 300 nM): 28.7% and 29.6% | normalised viability ([24]; 300 nM): 39% and 37.2% | normalised viability ([25]; 300 nM): 72.9% and 72.6%

O=C1NC(=O)[C@@H](c2cn3c4c(cccc24)CCC3)[C@@H]1c1c[nH]c2ccccc12 [Tivantinib]
drug sensitivity score [1]: 0.607 | drug sensitivity score [2]: 2.15 | drug sensitivity score [3]: 0 | drug sensitivity score [4]: 4.04 | drug sensitivity score [5]: 2.61 | drug sensitivity score [6]: 1.21 | drug sensitivity score [7]: 1.07 | drug sensitivity score [8]: 8.31 | drug sensitivity score [9]: 1.35 | drug sensitivity score [26]: 6.08 | drug sensitivity score [10]: 4.05 | drug sensitivity score [11]: 4.4 | drug sensitivity score [12]: 7.87 | drug sensitivity score [13]: 1.91 | drug sensitivity score [14]: 0 | drug sensitivity score [15]: 1.69 | drug sensitivity score [16]: 0 | drug sensitivity score [17]: 2.65 | normalised viability ([18]; 1000 nM): 21.1% | normalised viability ([19]; 1000 nM): 31% | normalised viability ([20]; 300 nM): 98.3% | normalised viability ([21]; 300 nM): 68.8% | normalised viability ([22]; 300 nM): 102% | normalised viability ([23]; 300 nM): 49.5% | normalised viability ([24]; 300 nM): 97.9% | normalised viability ([25]; 300 nM): 90.7%

CC(C)(C#N)c1cc(Cn2cncn2)cc(C(C)(C)C#N)c1 [Anastrozole]
drug sensitivity score [1]: 0 | drug sensitivity score [2]: 0 | drug sensitivity score [3]: 0 | drug sensitivity score [4]: 0 | drug sensitivity score [5]: 0 | drug sensitivity score [6]: 0 | drug sensitivity score [7]: 0 | drug sensitivity score [8]: 0 | drug sensitivity score [9]: 0 | drug sensitivity score [26]: 0 | drug sensitivity score [10]: 0 | drug sensitivity score [11]: 0 | drug sensitivity score [12]: 0 | drug sensitivity score [13]: 0 | drug sensitivity score [14]: 0 | drug sensitivity score [15]: 0 | drug sensitivity score [16]: 0 | drug sensitivity score [17]: 0 | normalised viability ([18]; 10000 nM): 104% | normalised viability ([19]; 10000 nM): 79.8% | normalised viability ([20]; 3000 nM): 108% | normalised viability ([21]; 3000 nM): 82.8% | normalised viability ([22]; 3000 nM): 96.5% | normalised viability ([23]; 3000 nM): 103% | normalised viability ([24]; 3000 nM): 87.2% | normalised viability ([25]; 3000 nM): 85.3%

C[C@]12CC[C@H](O)CC1=CC[C@@H]1[C@@H]2CC[C@]2(C)C(c3cccnc3)=CC[C@@H]12 [Abiraterone]
drug sensitivity score [1]: 0 | drug sensitivity score [2]: 0 | drug sensitivity score [3]: 0 | drug sensitivity score [4]: 0 | drug sensitivity score [5]: 0 | drug sensitivity score [6]: 0 | drug sensitivity score [7]: 0 | drug sensitivity score [8]: 0 | drug sensitivity score [9]: 0 | drug sensitivity score [26]: 0 | drug sensitivity score [10]: 0 | drug sensitivity score [11]: 0 | drug sensitivity score [12]: 0 | drug sensitivity score [13]: 0 | drug sensitivity score [14]: 0 | drug sensitivity score [15]: 0 | drug sensitivity score [16]: 0 | drug sensitivity score [17]: 0 | normalised viability ([18]; 5000 nM): 92% | normalised viability ([19]; 5000 nM): 89.2% | normalised viability ([20]; 1500 nM): 106% | normalised viability ([21]; 1500 nM): 97.5% | normalised viability ([22]; 1500 nM): 88.1% | normalised viability ([23]; 1500 nM): 96% | normalised viability ([24]; 1500 nM): 98.1% | normalised viability ([25]; 1500 nM): 125%
